Experimental data taken from article PMC7619385 (ACS infectious diseases, 2025).
Where two headings read alike, the source gives them in different places.

Columns and labels:
[1] = system: L. mexicana promastigotes; test: Promastigote viability (Alamar Blue/resazurin); format: cell-based; conditions: Leishmania mexicana
Method: Next, we evaluated GZD824 ability to reduce the viability of L. mexicana promastigotes by monitoring the reduction of resazurin (Alamar Blue).[31]
L. mexicana (strain MNYC/BZ/62/M379) promastigotes were cultivated in medium 199 (M199) (Earle’s Salts - Gibco) supplemented with 10% (v/v) heat-inactivated fetal calf serum (HIFCS – Cultilab) and 1% Penicillin/Streptomycin solution (Sigma-Aldrich) at 26 °C. Phenotypic drug response assays in null mutant and point-mutation mutant lines were performed in HOMEM supplemented with 10% (v/v) heat-inactivated fetal calf serum (HIFCS – Gibco). THP-1 monocytes were differentiated in adherent macrophages with 50 ng of PMA for 72 h at 37 °C and 5% CO2 before infection with stationary phase promastigotes (ratio 10 promastigotes:1 macrophage) for 6 h, followed by washing to remove non-internalized Leishmania. Infected macrophages were incubated at 34 °C and 5% CO2 for 48 h in RPMI (Gibco) supplemented with 10% HIFCS and 1% Penicillin/Streptomycin solution.
For evaluation of drug effect on promastigote and uninfected macrophage viability, cells were cultivated in the presence of test compounds for 24 h and incubated with 10% AlamarBlue™ Cell Viability Reagent (ThermoFisher) for 24 h before measuring fluorescence at λex 540 nm/λem 590 nm. Untreated cells (1% DMSO) were set as 100 % viable cells. Intracellular amastigotes were treated with compounds for 48 h. Slides with paraformaldehyde-fixed and DAPI-stained cells were imaged on a Zeiss AxioImager microscope – at least 200 macrophages per drug concentration and DMSO control. Experiments were performed in duplicate. The total number of amastigotes was normalized by the number of macrophages counted. For EC50 determination, the data was fitted to the sigmoidal dose-response (variable slope) equation in GraphPad Prism (v.9.1.0).

[2] = system: T790M mutant form of EGFR; conditions: cited from earlier work
[3] = system: THP-1-derived macrophages; conditions: human, 24 h, 100 µM
Method: For evaluation of drug effect on promastigote and uninfected macrophage viability, cells were cultivated in the presence of test compounds for 24 h and incubated with 10% AlamarBlue™ Cell Viability Reagent (ThermoFisher) for 24 h before measuring fluorescence at λex 540 nm/λem 590 nm. Untreated cells (1% DMSO) were set as 100 % viable cells. […] Experiments were performed in duplicate.

[4] = system: LmxCLK1-overexpressing L. mexicana; test: microbe, parasite or virus in culture; format: cell-based, Leishmania mexicana
[5] = system: L. mexicana intracellular amastigotes; test: Intracellular amastigote viability in THP-1 macrophages (DAPI counting); format: cell-based; conditions: Leishmania mexicana, macrophage-internalized amastigotes, 48 h
Method: L. mexicana (strain MNYC/BZ/62/M379) promastigotes were cultivated in medium 199 (M199) (Earle’s Salts - Gibco) supplemented with 10% (v/v) heat-inactivated fetal calf serum (HIFCS – Cultilab) and 1% Penicillin/Streptomycin solution (Sigma-Aldrich) at 26 °C. […] THP-1 monocytes were differentiated in adherent macrophages with 50 ng of PMA for 72 h at 37 °C and 5% CO2 before infection with stationary phase promastigotes (ratio 10 promastigotes:1 macrophage) for 6 h, followed by washing to remove non-internalized Leishmania. Infected macrophages were incubated at 34 °C and 5% CO2 for 48 h in RPMI (Gibco) supplemented with 10% HIFCS and 1% Penicillin/Streptomycin solution.

[6] = system: L. mexicana T7/Cas9 Δclk1, Δclk2 and Cys172Ala LmxCLK1 lines; test: Viability of T7/Cas9 null mutant and cysteine point-mutant lines; format: cell-based, Leishmania mexicana; conditions: 96 h, versus parental T7/Cas9 line
Excerpt: Data represent mean ± SD of four independent experiments performed in triplicate. […] Data represent mean ± SD of two independent experiments performed in duplicate. […] Data represent mean ± SD of two independent experiments performed in triplicate. […] Values are mean ± SEM.

[7] = 48 h compound exposure, read-out: EC50 promastigote viability

Row | Structure (SMILES) | EC50 [1, 7] [µM] | Selectivity for T790M mutant EGFR compared to wild-type enzyme [2] | Reduction in macrophage viability [3] | EC50 ([4]; Leishmania mexicana, read-out: EC50 LmxCLK1-overexpressing parasites) [µM] | Reduction of parasite sensitivity by LmxCLK1 overexpression ([4]; compared to wild-type parasites) | EC50 ([1]; wild-type comparator of the overexpression experiment (Figure 6D), read-out: EC50 wild-type parasites) [µM] | EC50 [5] [µM] | Sensitivity of Δclk1 line [6]
1 | Cc1ccc(C(=O)Nc2ccc(CN3CCN(C)CC3)c(C(F)(F)F)c2)cc1C#Cc1cnc2[nH]ncc2c1 [GZD824] | 33 |  |  |  |  |  |  | 
2 | C=CC(=O)Nc1cccc(Sc2nc(Nc3ccc(N4CCN(C)CC4)cc3)ncc2Cl)c1 [WZ8040] | 7.9 | over 10 fold | ~ 15% | 17.6 | approximately 3 fold | 5.6 | 2.1 | significantly enhanced sensitivity
